# Results reported in patent US8202865B2, “Oxadiazole derivatives” (Merck Serono SA, priority 2007, dated 2012).
# Counter-ions that a name gives are not always drawn.
# Target: T1, S1P1 (Homo sapiens, UniProt P21453)
# T1 construct: expressed in transfected cells; host or cells: CHO cells (membranes)
# Experiment: 35S-GTPγS binding, S1P1 membranes
# Format: biochemical
# Conditions: membranes from CHO cells expressing S1P1; 60 min 30° C.
# Description: Receptor binding assay: Membranes were prepared from CHO cells expressing S1P1 or S1P3 for use in ligand and […] binding studies. Cells were suspended in 50 mM TRIS, pH 7.4, 2 mM EDTA, 250 mM Sucrose (buffer A) and 1× Complete protease inhibitor cocktail (Roche), and disrupted at 4° C. by N2 decompression using a cell disruption bomb (Parr Instrument). Following centrifugation at 1000 RPM for 10 min at 4° C., the supernatant was suspended in buffer A and centrifuged again at 19000 RPM for 60 min at 4° C. The pellet was then suspended in 10 mM HEPES, pH 7.4, 1 mM EDTA, 250 mM Sucrose (Buffer B), and 1× Complete EDTA-free protease inhibitor cocktail and homogenized using a potter. Membranes were flash frozen in liquid N2 and stored at −80° C. [33P]sphingosine 1-phosphate (3000 Ci/mmol; American Radiolabeled Chemicals, Inc.) was added to test compounds in DMSO. Membranes and WGA SPA beads (GE Healthcare) were added to give a final volume of 100 μl in 96-well plates with assay concentrations of 25 pM or 10 pM [33P]sphingosine 1-phosphate (respectively for S1P1 or S1P3), 50 mM HEPES, pH 7.5, 5 mM MgCl2, 100 mM NaCl, 0.4% fatty acid-free BSA, 1-5 μg/well of proteins and 100 μg/well of WGA SPA beads. Binding was performed for 60 min at RT on a shaker and bound radioactivity was measured on a PerkinElmer 1450 MicroBeta counter. Specific binding was calculated by subtracting remaining radioactivity in the presence of 1000-fold excess of unlabeled S1P. Binding data were analyzed using the GraphPad Prism program.
# Measurements of ^35S-GTPγS Binding: Membranes (1 to 10 μg protein) prepared as described above, were incubated in 96-well Scintiplates (PerkinElmer) with test compounds diluted in DMSO, in 180 μl of 20 mM HEPES, pH 7.4, 10 mM MgCl2, 2 μg/well Saponin, 0.2% fatty acid free BSA (Assay buffer), 140 mM NaCl and 1.7 μM GDP. The assay was initiated with the addition of 20 μl of 1.5 nM [35S]-GTPγS (1100 Ci/mmol; GE Healthcare) in assay buffer. After 60 min incubation at 30° C. on a shaker, plates were centrifuged for 10 min at 2000 RPM. Supernatant was discarded and membrane bound radioactivity was measured on a PerkinElmer 1450 MicroBeta counter. Triplicate samples were averaged and expressed as % response relative to S1P activation in absence of compound (n=2).
# T1 sequence (P21453 whole entry, species assumed): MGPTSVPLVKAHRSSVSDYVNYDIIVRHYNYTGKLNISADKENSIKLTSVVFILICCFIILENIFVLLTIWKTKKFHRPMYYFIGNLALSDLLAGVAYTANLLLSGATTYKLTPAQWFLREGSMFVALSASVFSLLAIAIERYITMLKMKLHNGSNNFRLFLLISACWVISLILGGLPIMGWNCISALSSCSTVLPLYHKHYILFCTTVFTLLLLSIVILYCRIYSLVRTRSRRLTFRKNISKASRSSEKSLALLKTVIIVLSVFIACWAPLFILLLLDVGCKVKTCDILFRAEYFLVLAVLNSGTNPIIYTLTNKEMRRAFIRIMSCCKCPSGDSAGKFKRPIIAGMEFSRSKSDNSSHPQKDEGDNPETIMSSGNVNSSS
row,Structure (SMILES),EC50 [nM]
1,"CCC(=O)Nc1cc(-c2nc(-c3ccc(C(=O)O)c(F)c3)no2)ccc1N1CCCCC1C (centres unmarked) [Example 72, 2-fluoro-4-{5-[4-(2-methylpiperidin-1-yl)-3-(propionylamino)phenyl]-1,2,4-oxadiazol-3-yl}benzoic acid]",8510
2,"COCc1cc(-c2nc(-c3ccc(C(=O)OC)c(F)c3)no2)ccc1OC(C)C [Example 110, methyl 2-fluoro-4-{5-[4-isopropoxy-3-(methoxymethyl)phenyl]-1,2,4-oxadiazol-3-yl}benzoate]",240
3,"Cc1ccccc1-c1ccc(-c2nc(-c3ccc(C(=O)O)c(Cl)c3)no2)cc1CS(C)(=O)=O [Example 88, 2-chloro-4-(5-{2′-methyl-2-[(methylsulfonyl)methyl]biphenyl-4-yl}-1,2,4-oxadiazol-3-yl)benzoic acid]",4640
4,"COCc1cc(-c2nc(-c3cc(Cl)c(C(=O)O)cc3OC)no2)ccc1-c1ccccc1C [Example 115, 2-chloro-5-methoxy-4-{5-[2-(methoxymethyl)-2′-methylbiphenyl-4-yl]-1,2,4-oxadiazol-3-yl}benzoic acid]",246
5,"COCCOc1cc(-c2nc(-c3ccc(C(=O)O)c(F)c3)no2)ccc1-c1ccccc1C [Example 103, 2-fluoro-4-{5-[2-(2-methoxyethoxy)-2′-methylbiphenyl-4-yl]-1,2,4-oxadiazol-3-yl}benzoic acid]",257
6,"COCc1cc(-c2nc(-c3cccc(C(=O)NCCC(=O)OC)c3)no2)ccc1-c1ccccc1C [Example 132, Methyl N-(3-{5-[2-(methoxymethyl)-2′-methylbiphenyl-4-yl]-1,2,4-oxadiazol-3-yl}benzoyl)-beta-alaninate]",2.9
7,"COCc1cc(-c2nc(-c3ccc(F)c(CN(C)CCC(=O)O)c3)no2)ccc1OC(C)C [Example 157, N-(2-fluoro-5-{5-[4-isopropoxy-3-(methoxymethyl)phenyl]-1,2,4-oxadiazol-3-yl}benzyl)-N-methyl-beta-alanine, Hydrochloride salt]",4
8,"Cc1ccccc1-c1ccc(-c2nc(-c3ccc(C(=O)O)c(F)c3)no2)cc1OC(C)C [Example 101, 2-fluoro-4-[5-(2-isopropoxy-2′-methylbiphenyl-4-yl)-1,2,4-oxadiazol-3-yl]benzoic acid]",233
9,"Cc1ccccc1-c1ccc(-c2nc(-c3ccc(C(=O)O)c(F)c3)no2)cc1O [Example 99, 2-fluoro-4-[5-(2-hydroxy-2′-methylbiphenyl-4-yl)-1,2,4-oxadiazol-3-yl]benzoic acid]",7700
10,"COc1ccc(OC)c(-c2ccc(-c3nc(-c4ccc(C(=O)O)c(F)c4)no3)cc2C)c1 [Example 24, 4-[3-(2′,5′-dimethoxy-2-methylbiphenyl-4-yl)-1,2,4-oxadiazol-3-yl]-2-fluorobenzoic acid]",10400
11,"COCc1cc(-c2nc(-c3cccc(C(=O)NC4(C(=O)O)CC4)c3)no2)ccc1-c1ccccc1C [Example 133, 1-[(3-{5-[2-(methoxymethyl)-2′-methylbiphenyl-4-yl]-1,2,4-oxadiazol-3-yl}benzoyl)amino]cyclopropanecarboxylic acid]",21.6
12,"COCc1cc(-c2nc(-c3cccc(C(=O)NCC(=O)O)c3)no2)ccc1-c1ccccc1C [Example 134, N-(3-{5-[2-(methoxymethyl)-2′-methylbiphenyl-4-yl]-1,2,4-oxadiazol-3-yl}benzoyl)glycine]",5.1
13,"COCc1cc(-c2nc(-c3cccc(CNCCC(=O)OC(C)(C)C)c3)no2)ccc1-c1ccccc1C [Example 153, tert-butyl N-(3-{5-[2-(methoxymethyl)-2′-methylbiphenyl-4-yl]-1,2,4-oxadiazol-3-yl}benzyl)-beta-alaninate]",25.2
14,"O=C(O)c1ccc(-c2noc(-c3ccc(N4CCCCC4)c([N+](=O)[O-])c3)n2)cc1F [Example 14, 2-fluoro-4-[5-(3-nitro-4-piperidin-1-ylphenyl)-1,2,4-oxadiazol-3-yl]benzoic acid]",5180
15,"COCc1cc(-c2nc(-c3ccc(OCC(=O)O)c(F)c3)no2)ccc1N1CCCCC1C (centres unmarked) [Example 169, (2-fluoro-4-{5-[3-(methoxymethyl)-4-(2-methylpiperidin-1-yl)phenyl]-1,2,4-oxadiazol-3-yl}phenoxy)acetic acid, hydrochloride salt]",5.2
16,"COCc1cc(-c2nc(-c3ccc(C(=O)O)c(F)c3)no2)ccc1-c1cccc(OC)c1OC [Example 82, 4-{5-[2′,3′-dimethoxy-2-(methoxymethyl)biphenyl-4-yl]-1,2,4-oxadiazol-3-yl}-2-fluorobenzoic acid]",1580
17,"CCOC(=O)CCCOc1ccc(-c2noc(-c3ccc(N4CCCCC4C)c(COC)c3)n2)cc1F (centres unmarked) [Example 163, ethyl 4-(2-fluoro-4-{5-[3-(methoxymethyl)-4-(2-methylpiperidin-1-yl)phenyl]-1,2,4-oxadiazol-3-yl}phenoxy)butanoate]",5.5
18,"COCc1cc(-c2nc(-c3cccc(C(=O)NCC(=O)OC)c3)no2)ccc1-c1ccccc1C [Example 130, Methyl N-(3-{5-[2-(methoxymethyl)-2′-methylbiphenyl-4-yl]-1,2,4-oxadiazol-3-yl}benzoyl)glycinate]",8.6
19,"COCCCc1cc(-c2nc(-c3ccc(C(=O)O)c(F)c3)no2)ccc1-c1ccccc1C [Example 100, 2-fluoro-4-{5-[2-(3-methoxypropyl)-2′-methylbiphenyl-4-yl]-1,2,4-oxadiazol-3-yl}benzoic acid]",538
20,"CC(C)COc1ncc(-c2nc(-c3ccc(OCC(=O)O)c(F)c3)no2)cc1Cl [Example 49, {4-[5-(5-chloro-6-isobutoxypyridin-3-yl)-1,2,4-oxadiazol-3-yl]-2-fluorophenoxy}acetic acid]",1280
21,"CCOC(=O)CC(C)NC(=O)c1ccc(-c2noc(-c3ccc(-c4ccccc4C)c(COC)c3)n2)cc1F (centres unmarked) [Example 121, Ethyl 3-[(2-fluoro-4-{5-[2-(methoxymethyl)-2′-methylbiphenyl-4-yl]-1,2,4-oxadiazol-3-yl}benzoyl)amino]butanoate]",281
22,"CCc1ccccc1-c1ccc(-c2nc(-c3ccc(OCCCC(=O)O)c(F)c3)no2)cc1COC [Example 162, 4-(4-{5-[2′-ethyl-2-(methoxymethyl)biphenyl-4-yl]-1,2,4-oxadiazol-3-yl}-2-fluorophenoxy)butanoic acid]",5
23,"COCc1cc(-c2nc(-c3cccc(CN(CC(=O)OC(C)(C)C)C(=O)OC(C)(C)C)c3)no2)ccc1-c1ccccc1C [Example 149, Tert-butyl N-(tert-butoxycarbonyl)-N-(3-{5-[2-(methoxymethyl)-2′-methylbiphenyl-4-yl]-1,2,4-oxadiazol-3-yl}benzyl)glycinate]",1240
24,"COc1cc(C(=O)O)ccc1-c1noc(-c2ccc(-c3ccccc3C)c(C)c2)n1 [Example 45, 4-[5-(2,2′-dimethylbiphenyl-4-yl)-1,2,4-oxadiazol-3-yl]-3-methoxybenzoic acid]",4480
25,"Cc1ccccc1-c1ccc(-c2nc(-c3ccc(C(=O)O)c(F)c3)no2)cc1 [Example 5, 2-fluoro-4-[5-(2′-methylbiphenyl-4-yl)-1,2,4-oxadiazol-3-yl]benzoic acid]",5140
26,"COCc1cc(-c2nc(-c3cccc(COCC(=O)OC)c3)no2)ccc1-c1ccccc1C [Example 159, Methyl [(3-{5-[2-(methoxymethyl)-2′-methylbiphenyl-4-yl]-1,2,4-oxadiazol-3-yl}benzyl)oxy]acetate]",2.9
